A word on the EC50: it is the midpoint of the concentration-response curve.

Drawing on patent US11596692B1 (Incyte Corporation, priority 2018, dated 2023), this text covers EC50 for 16 compounds.

This assay has as its system IRF3. The assay is described as follows: IRF3 activation assay in THP-1 Dual cells. The assay is classed as cell-based. The conditions noted are these: Homo sapiens, read-out: THP1 IRF3 EC50. The gist of the method: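 THP-1 Dual cells (100,000/well) were treated with serially diluted compound for 24 h at 37° C, 5% CO2. IRF3 reporter activity in supernatant was read with QUANTI-Blue as absorbance at 620-655 nm after 2 h, with untreated cells as negative control. EC50 came from fitting percent control activity against log concentration.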

Where two headings read alike, the source gives them in different places.

For the compound `CCn1nc(C)cc1C(=O)Nc1nc2cc(C(N)=O)cc(OC(C)C)c2n1C/C=C/Cn1c2nc(-c3cc(C)nn3CC)ncc2c2cc(C(N)=O)cc(OCCCOC)c21` [Example S35, (E)-9-(4-(5-carbamoyl-2-(1-ethyl-3-methyl-1H-pyrazole-5-carboxamido)-7-isopropoxy-1H-benzo[d]imidazol-1-yl)but-2-en-1-yl)-2-(1-ethyl-3-methyl-1H-pyrazol-5-yl)-8-(3-methoxypropoxy)-9H-pyrimido[4,5-b]indole-6-carboxamide], where the note is “THP-1, Table 4C”, the EC50 is 0.05 to 0.2 µM.
As to `CCn1nc(C)cc1C(=O)Nc1nc2cc(C(N)=O)cc(OCCCNC(=O)OCCC(=O)O)c2n1C/C=C/Cn1c2nc(-c3cc(C)nn3CC)ncc2c2cc(C(N)=O)cc(OCCCOC)c21` [Example S44, (E)-3-(((3-((5-carbamoyl-1-(4-(6-carbamoyl-2-(1-ethyl-3-methyl-1H-pyrazol-5-yl)-8-(3-methoxypropoxy)-9H-pyrimido[4,5-b]indol-9-yl)but-2-en-1-yl)-2-(1-ethyl-3-methyl-1H-pyrazole-5-carboxamido)-1H-benzo[d]imidazol-7-yl)oxy)propyl)carbamoyl)oxy)propanoic acid], for the setting “THP-1, Table 4C”, the 50% effective concentration (EC50) was no more than 0.05 µM.
As to `CCn1nc(C)cc1C(=O)Nc1nc2cc(C(N)=O)cc(OC)c2n1C/C=C/Cn1c2nc(-c3cc(C)nn3CC)ncc2c2cc(C(N)=O)cc(OCCC3CCN(CCCC(=O)O)CC3)c21` [Example S60, (E)-4-(4-(2-(6-carbamoyl-9-(4-(5-carbamoyl-2-(1-ethyl-3-methyl-1H-pyrazole-5-carboxamido)-7-methoxy-1H-benzo[d]imidazol-1-yl)but-2-enyl)-2-(1-ethyl-3-methyl-1H-pyrazol-5-yl)-9H-pyrimido[4,5-b]indol-8-yloxy)ethyl)piperidin-1-yl)butanoic acid], the EC50 (THP-1, Table 4C) lay in the range of 0.05 to 0.2 µM.
Consider `CCn1nc(C)cc1C(=O)Nc1nc2cc(C(N)=O)cc(C)c2n1C/C=C/Cn1c2nc(-c3cc(C)nn3CC)ncc2c2cc(C(N)=O)cc(OCCCO)c21` [Example S13, (E)-9-(4-(5-carbamoyl-2-(1-ethyl-3-methyl-1H-pyrazole-5-carboxamido)-7-methyl-1H-benzo[d]imidazol-1-yl)but-2-enyl)-2-(1-ethyl-3-methyl-1H-pyrazol-5-yl)-8-(3-hydroxypropoxy)-9H-pyrimido[4,5-b]indole-6-carboxamide], for which the EC50 (THP-1, Table 4A) was no more than 0.1 µM; the EC50 (THP-1, Table 4B) is less than 0.2 µM; the EC50 (THP-1, Table 4C) is no more than 0.05 µM.
`CCn1nc(C)cc1C(=O)Nc1nc2cc(C(N)=O)cc(C)c2n1C/C=C/Cn1c2ccc(C(N)=O)cc2c2cnc(-c3cc(C)nn3C)nc21` [Example S3, (E)-9-(4-(5-carbamoyl-2-(1-ethyl-3-methyl-1H-pyrazole-5-carboxamido)-7-methyl-1H-benzo[d]imidazol-1-yl)but-2-enyl)-2-(1,3-dimethyl-1H-pyrazol-5-yl)-9H-pyrimido[4,5-b]indole-6-carboxamide]: the concentration for a half-maximal effect (EC50) is, setting by setting: (THP-1, Table 4A) 0.1 to 0.5 µM; (THP-1, Table 4B) less than 1 µM.
Regarding `CCn1nc(C)cc1C(=O)Nc1nc2cc(C(N)=O)cc(OCCCO)c2n1C/C=C/Cn1c2nc(-c3cc(C)nn3CC)ncc2c2cc(C(N)=O)cc(OCCCN3CCOCC3)c21` [Example S20, (E)-9-(4-(5-carbamoyl-2-(1-ethyl-3-methyl-1H-pyrazole-5-carboxamido)-7-(3-hydroxypropoxy)-1H-benzo[d]imidazol-1-yl)but-2-en-1-yl)-2-(1-ethyl-3-methyl-1H-pyrazol-5-yl)-8-(3-morpholinopropoxy)-9H-pyrimido[4,5-b]indole-6-carboxamide], the EC50 is no more than 0.1 µM (THP-1, Table 4A); less than 0.2 µM (THP-1, Table 4B); no more than 0.05 µM (THP-1, Table 4C).
Consider `CCn1nc(C)cc1C(=O)Nc1nc2cc(C(N)=O)cc(C)c2n1C/C=C/Cn1c2ccc(C(N)=O)cc2c2cnc(-c3ccnn3CC)nc21` [Example S7, (E)-9-(4-(5-carbamoyl-2-(1-ethyl-3-methyl-1H-pyrazole-5-carboxamido)-7-methyl-1H-benzo[d]imidazol-1-yl)but-2-enyl)-2-(1-ethyl-1H-pyrazol-5-yl)-9H-pyrimido[4,5-b]indole-6-carboxamide], for which the 50% effective concentration (EC50) is, setting by setting: (THP-1, Table 4A) 0.1 to 0.5 µM; (THP-1, Table 4B) less than 1 µM; (THP-1, Table 4C) 0.2 to 0.5 µM.
For `CCn1nc(C)cc1C(=O)Nc1nc2cc(C(N)=O)cc(OCCCOC)c2n1C/C=C/Cn1c2nc(-c3cc(C)nn3CC)ncc2c2cc(C(N)=O)cc(OCCCNC(=O)OCCC(=O)O)c21` [Example S56, (E)-3-(3-(6-carbamoyl-9-(4-(5-carbamoyl-2-(1-ethyl-3-methyl-1H-pyrazole-5-carboxamido)-7-(3-methoxypropoxy)-1H-benzo[d]imidazol-1-yl)but-2-enyl)-2-(1-ethyl-3-methyl-1H-pyrazol-5-yl)-9H-pyrimido[4,5-b]indol-8-yloxy)propylcarbamoyloxy)propanoic acid], the EC50 (THP-1, Table 4C) is no more than 0.05 µM.
Take `CCn1nc(C)cc1C(=O)Nc1nc2cc(C(N)=O)cc(OCCCO)c2n1C/C=C/Cn1c2nc(-c3cc(C)nn3CC)ncc2c2cc(C(N)=O)cc(OC)c21` [Example S16, (E)-9-(4-(5-carbamoyl-2-(1-ethyl-3-methyl-1H-pyrazole-5-carboxamido)-7-(3-hydroxypropoxy)-1H-benzo[d]imidazol-1-yl)but-2-en-1-yl)-2-(1-ethyl-3-methyl-1H-pyrazol-5-yl)-8-methoxy-9H-pyrimido[4,5-b]indole-6-carboxamide]: the concentration giving a half-maximal response (EC50) is no more than 0.1 µM (THP-1, Table 4A); less than 0.2 µM (THP-1, Table 4B); no more than 0.05 µM (THP-1, Table 4C).
On to `CCn1nc(C)cc1C(=O)Nc1nc2cc(C(N)=O)cc(OCCN3CCOCC3)c2n1C/C=C/Cn1c2nc(-c3cc(C)nn3CC)ncc2c2cc(C(N)=O)cc(OCCCOC)c21` [Example S43, (E)-9-(4-(5-carbamoyl-2-(1-ethyl-3-methyl-1H-pyrazole-5-carboxamido)-7-(2-morpholinoethoxy)-1H-benzo[d]imidazol-1-yl)but-2-en-1-yl)-2-(1-ethyl-3-methyl-1H-pyrazol-5-yl)-8-(3-methoxypropoxy)-9H-pyrimido[4,5-b]indole-6-carboxamide], for which, under “THP-1, Table 4C”, the EC50 lay within 0.05 to 0.2 µM.
For `CCn1nc(C)cc1C(=O)Nc1nc2cc(C(N)=O)c3ccoc3c2n1C/C=C/Cn1c2nc(-c3cc(C)nn3CC)ncc2c2cc(C(N)=O)cc(OCCCO)c21` [Example S69, (E)-1-(4-(6-carbamoyl-2-(1-ethyl-3-methyl-1H-pyrazol-5-yl)-8-(3-hydroxypropoxy)-9H-pyrimido[4,5-b]indol-9-yl)but-2-en-1-yl)-2-(1-ethyl-3-methyl-1H-pyrazole-5-carboxamido)-1H-benzofuro[6,7-d]imidazole-5-carboxamide], the EC50 (THP-1, Table 4A) is no more than 0.1 µM.
For `CCn1nc(C)cc1C(=O)Nc1nc2cc(C(N)=O)cc(C)c2n1C/C=C/Cn1c2nc(-c3cc(C)nn3CC)ncc2c2cc(C(N)=O)cc(OCCCOC)c21` [Example S12, (E)-9-(4-(5-carbamoyl-2-(1-ethyl-3-methyl-1H-pyrazole-5-carboxamido)-7-methyl-1H-benzo[d]imidazol-1-yl)but-2-enyl)-2-(1-ethyl-3-methyl-1H-pyrazol-5-yl)-8-(3-methoxypropoxy)-9H-pyrimido[4,5-b]indole-6-carboxamide], the concentration for a half-maximal effect (EC50) is no more than 0.1 µM (THP-1, Table 4A); less than 0.2 µM (THP-1, Table 4B); no more than 0.05 µM (THP-1, Table 4C).
Consider `CCn1nc(C)cc1C(=O)Nc1nc2cc(C(N)=O)cc(OCCCC#N)c2n1C/C=C/Cn1c2nc(-c3cc(C)nn3CC)ncc2c2cc(C(N)=O)cc(OCCCOC)c21` [Example S34, (E)-9-(4-(5-carbamoyl-7-(3-cyanopropoxy)-2-(1-ethyl-3-methyl-1H-pyrazole-5-carboxamido)-1H-benzo[d]imidazol-1-yl)but-2-en-1-yl)-2-(1-ethyl-3-methyl-1H-pyrazol-5-yl)-8-(3-methoxypropoxy)-9H-pyrimido[4,5-b]indole-6-carboxamide], for which the EC50 (THP-1, Table 4C) is no more than 0.05 µM.
As to `CCn1nc(C)cc1C(=O)Nc1nc2cc(C(N)=O)cc(OC)c2n1C/C=C/Cn1c2ccc(C(N)=O)cc2c2cnc(-c3cc(C)nn3CC)nc21` [Example S4, (E)-9-(4-(5-carbamoyl-2-(1-ethyl-3-methyl-1H-pyrazole-5-carboxamido)-7-methoxy-1H-benzo[d]imidazol-1-yl)but-2-enyl)-2-(1-ethyl-3-methyl-1H-pyrazol-5-yl)-9H-pyrimido[4,5-d]indole-6-carboxamide], the EC50 is 0.5 to 1 µM (THP-1, Table 4A); less than 1 µM (THP-1, Table 4B); 0.5 to 1 µM (THP-1, Table 4C).
As for `CCn1nc(C)cc1C(=O)Nc1nc2cc(C(N)=O)cc(OCCCOC(=O)c3cc(C)nn3CC)c2n1C/C=C/Cn1c2nc(-c3cc(C)nn3CC)ncc2c2cc(C(N)=O)cc(OCCCN3CCOCC3)c21` [Example S19, (E)-3-((5-carbamoyl-1-(4-(6-carbamoyl-2-(1-ethyl-3-methyl-1H-pyrazol-5-yl)-8-(3-morpholinopropoxy)-9H-pyrimido[4,5-b]indol-9-yl)but-2-en-1-yl)-2-(1-ethyl-3-methyl-1H-pyrazole-5-carboxamido)-1H-benzo[d]imidazol-7-yl)oxy)propyl 1-ethyl-3-methyl-1H-pyrazole-5-carboxylate], the EC50 (THP-1, Table 4A) is no more than 0.1 µM; the concentration for a half-maximal effect (EC50) (THP-1, Table 4B) is less than 0.2 µM; the EC50 (THP-1, Table 4C) was no more than 0.05 µM.
Take `CCn1nc(C)cc1C(=O)Nc1nc2cc(C(N)=O)cc(OCCCOC)c2n1C/C=C/Cn1c2nc(-c3cc(C)nn3CC)ncc2c2cc(C(N)=O)cc(OCCOCCOCCC(=O)O)c21` [Example S58, (E)-3-(2-(2-(6-carbamoyl-9-(4-(5-carbamoyl-2-(1-ethyl-3-methyl-1H-pyrazole-5-carboxamido)-7-(3-methoxypropoxy)-1H-benzo[d]imidazol-1-yl)but-2-enyl)-2-(1-ethyl-3-methyl-1H-pyrazol-5-yl)-9H-pyrimido[4,5-b]indol-8-yloxy)ethoxy)ethoxy)propanoic acid]: for the setting “THP-1, Table 4C”, the EC50 was 0.05 to 0.2 µM.
